ChEMBL document CHEMBL1201862, “PubChem BioAssay data set” (2004)
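48-hour exposure; five concentrations; linearly interpolated endpoints. GI50 marks 50% less growth.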 Calls of active or inactive are those of the source. No stated cut-off is given here; in the data, active = GI50 up to about 1.1 µM and inactive = higher.

Tests used:
Experiment in all cases: growth of human tumour cells (NCI), 48 h
RXF 393 = tested on: RXF 393
T47D = tested on: T47D
COLO 205 = tested on: COLO 205
HCT-116 = tested on: HCT-116
DLD-1 = tested on: DLD-1
NCI-H23 = tested on: NCI-H23
SK-OV-3 = tested on: SK-OV-3
SNB-19 = tested on: SNB-19
LXFL 529 = tested on: LXFL 529
RPMI-8226 = tested on: RPMI-8226
KM-20L2 = tested on: KM-20L2
DMS-114 = tested on: DMS-114
Malme-3M = tested on: Malme-3M
SF-295 = tested on: SF-295
PC-3 = tested on: PC-3
HOP-92 = tested on: HOP-92
MDA-MB-231 = tested on: MDA-MB-231
TK-10 = tested on: TK-10
Hs-578T = tested on: Hs-578T
SNB-78 = tested on: SNB-78
DMS-273 = tested on: DMS-273
SW-620 = tested on: SW-620
HCT-15 = tested on: HCT-15
DU-145 = tested on: DU-145
CCRF-CEM = tested on: CCRF-CEM
SK-MEL-5 = tested on: SK-MEL-5
HOP-62 = tested on: HOP-62
A498 = tested on: A498
NCI-H460 = tested on: NCI-H460
HL-60 = tested on: HL-60
NCI/ADR-RES = tested on: NCI/ADR-RES
K562 = tested on: K562
UACC-62 = tested on: UACC-62
SF-539 = tested on: SF-539
OVCAR-3 = tested on: OVCAR-3
U-251 = tested on: U-251
M14 = tested on: M14
OVCAR-8 = tested on: OVCAR-8
ACHN = tested on: ACHN
HT-29 = tested on: HT-29
EKVX = tested on: EKVX
M19-MEL = tested on: M19-MEL
BT-549 = tested on: BT-549
HOP-18 = tested on: HOP-18
SK-MEL-28 = tested on: SK-MEL-28
CAKI-1 = tested on: CAKI-1
NCI-H226 = tested on: NCI-H226
SNB-75 = tested on: SNB-75
SK-MEL-2 = tested on: SK-MEL-2
IGROV-1 = tested on: IGROV-1
SF-268 = tested on: SF-268
786-0 = tested on: 786-0
HCC 2998 = tested on: HCC 2998
MOLT-4 = tested on: MOLT-4
KM12 = tested on: KM12
A549 = tested on: A549
MDA-N = tested on: MDA-N
XF498 = tested on: XF498
MDA-MB-435 = tested on: MDA-MB-435
RXF 631 = tested on: RXF 631
NCI-H522 = tested on: NCI-H522
UACC-257 = tested on: UACC-257
SR = tested on: SR
UO-31 = tested on: UO-31
MCF7 = tested on: MCF7
LOX IMVI = tested on: LOX IMVI

For `C/C(=N\NC(=S)N1CCC1)c1ccccn1`, the GI50 (RXF 393) was 0.163 µM (active), the GI50 (T47D) was 0.00137 µM (active) and the GI50 (COLO 205) was 0.01 µM (active). For the same compound, the GI50 (HCT-116) was 0.01 µM (active), the GI50 (DLD-1) was 0.01 µM (active) and the GI50 (NCI-H23) was 0.01 µM (active). For the same compound, the GI50 (SK-OV-3) was < 0.0131 µM (active), the GI50 (SNB-19) was 0.261 µM (active) and the GI50 (LXFL 529) was 0.01 µM (active). The GI50 (RPMI-8226) was 0.01 µM (active), the GI50 (KM-20L2) was 0.01 µM (active) and the GI50 (DMS-114) was 0.01 µM (active). For the same compound, the GI50 (Malme-3M) was 0.175 µM (active), the GI50 (SF-295) was 0.01 µM (active) and the GI50 (PC-3) was 0.0512 µM (active). For the same compound, the GI50 (HOP-92) was 0.0443 µM (active), the GI50 (MDA-MB-231) was 0.0155 µM (active) and the GI50 (TK-10) was 1.29 µM (inactive). For the same compound, the GI50 (Hs-578T) was 4.06 µM (inactive), the GI50 (SNB-78) was 2.2 µM (inactive) and the GI50 (DMS-273) was 0.01 µM (active). The GI50 (SW-620) was < 0.0103 µM (active), the GI50 (HCT-15) was less than 0.0219 µM and the GI50 (DU-145) was 0.891 µM (active). The GI50 (CCRF-CEM) was 0.01 µM (active), the GI50 (SK-MEL-5) was < 0.0196 µM (active) and the GI50 (HOP-62) was 0.0181 µM (active). The GI50 (A498) was 0.446 µM (active), the GI50 (NCI-H460) was < 0.0184 µM (active) and the GI50 (HL-60) was 0.01 µM (active). For the same compound, the GI50 (NCI/ADR-RES) was 0.00332 µM (active), the GI50 (K562) was 0.01 µM (active) and the GI50 (UACC-62) was < 0.016 µM (active). The GI50 (SF-539) was 0.114 µM (active), the GI50 (OVCAR-3) was 0.01 µM (active) and the GI50 (U-251) was 0.01 µM (active). For the same compound, the GI50 (M14) was 0.01 µM (active), the GI50 (OVCAR-8) was 0.01 µM (active) and the GI50 (ACHN) was 0.01 µM (active). The GI50 (HT-29) was 0.01 µM (active), the GI50 (EKVX) was 0.0658 µM (active) and the GI50 (M19-MEL) was 0.0815 µM (active). For the same compound, the GI50 (BT-549) was 11.5 µM (inactive), the GI50 (HOP-18) was 0.929 µM (active) and the GI50 (SK-MEL-28) was 0.425 µM (active). The GI50 (CAKI-1) was 0.0398 µM (active), the GI50 (NCI-H226) was 0.293 µM (active) and the GI50 (SNB-75) was 0.838 µM (active). For the same compound, the GI50 (SK-MEL-2) was 1.97 µM (inactive), the GI50 (IGROV-1) was 0.01 µM (active) and the GI50 (SF-268) was 0.824 µM (active). For the same compound, the GI50 (786-0) was < 0.0239 µM (active), the GI50 (HCC 2998) was 0.374 µM (active) and the GI50 (MOLT-4) was 0.01 µM (active). The GI50 (KM12) was 0.0287 µM (active), the GI50 (A549) was 0.0246 µM (active) and the GI50 (MDA-N) was 0.0682 µM (active). The GI50 (XF498) was 0.457 µM (active), the GI50 (MDA-MB-435) was 0.0264 µM (active) and the GI50 (RXF 631) was < 0.0262 µM (active). The GI50 (NCI-H522) was < 0.0497 µM (active), the GI50 (UACC-257) was < 0.0229 µM (active) and the GI50 (SR) was 0.01 µM (active). For the same compound, the GI50 (UO-31) was 0.427 µM (active), the GI50 (MCF7) was 0.0015 µM (active) and the GI50 (LOX IMVI) was < 0.0119 µM (active).
